What was measured:
Btk = Btk (Rattus norvegicus, UniProt Q5S255); experiment: Inhibition of Btk activity in blood (in vitro B cell activation assay, CD86, rat whole blood); type: cell-based; details: Lewis rat whole blood diluted to 50%, anti-rat IgM + rat IL-4, 24 hours, CD86 on CD45RA positive B cells
Description: Alternatively, the inhibitory activity of the present compounds in blood was assessed in the following in vitro B cell activation assay. Whole blood was collected from the abdominal aorta of anaesthetized adult male Lewis rats and was anticoagulated with 100 U/ml sodium heparin. Blood was then diluted to 50% with high glucose DMEM (Amimed) supplemented with […] penicillin, […], 2 mM L-glutamin, 50 mg/ml dextran 40 and 5% FCS (Fetaclone I, Gibco). Then, 190 μl prediluted blood was mixed in 96 well U-bottomed microtiter plates (Nunc) with 10 μl of serial dilutions of test compounds in DMSO. […] Activation of B cells was measured by flow cytometry after staining for the B cell subset with PE-Cy5-labeled anti-ratCD45RA (Beckton-Dickinson) and for the activation marker CD86 (PE-labeled anti-rat CD86 (Beckton-Dickinson). All staining procedures were performed at RT for 30 min in the dark in 96-deep well V-bottomed microtiter plates (Corning) with BD Lysing Solution (Beckton-Dickinson).
Cytometric data was acquired on a FACScalibur flow cytometer (BD Biosciences) and the subpopulation of lymphocytes were gated according to size and granularity and further analyzed for expression of CD45RA and the activation markers. Data for the inhibition of B cell activation were calculated from the percentage of cells positively stained for activation markers within the CD45RA positive population.

[1] = target: full-length human recombinant BTK (Homo sapiens (Human), UniProt Q06187); experiment: Inhibition of Btk enzymatic activity (biochemical enzyme assay, Caliper); details: 6.4 nM enzyme solution, 164 μM ATP solution, 30° C., 60 minutes
Chain of full-length human recombinant BTK (Q06187 whole entry): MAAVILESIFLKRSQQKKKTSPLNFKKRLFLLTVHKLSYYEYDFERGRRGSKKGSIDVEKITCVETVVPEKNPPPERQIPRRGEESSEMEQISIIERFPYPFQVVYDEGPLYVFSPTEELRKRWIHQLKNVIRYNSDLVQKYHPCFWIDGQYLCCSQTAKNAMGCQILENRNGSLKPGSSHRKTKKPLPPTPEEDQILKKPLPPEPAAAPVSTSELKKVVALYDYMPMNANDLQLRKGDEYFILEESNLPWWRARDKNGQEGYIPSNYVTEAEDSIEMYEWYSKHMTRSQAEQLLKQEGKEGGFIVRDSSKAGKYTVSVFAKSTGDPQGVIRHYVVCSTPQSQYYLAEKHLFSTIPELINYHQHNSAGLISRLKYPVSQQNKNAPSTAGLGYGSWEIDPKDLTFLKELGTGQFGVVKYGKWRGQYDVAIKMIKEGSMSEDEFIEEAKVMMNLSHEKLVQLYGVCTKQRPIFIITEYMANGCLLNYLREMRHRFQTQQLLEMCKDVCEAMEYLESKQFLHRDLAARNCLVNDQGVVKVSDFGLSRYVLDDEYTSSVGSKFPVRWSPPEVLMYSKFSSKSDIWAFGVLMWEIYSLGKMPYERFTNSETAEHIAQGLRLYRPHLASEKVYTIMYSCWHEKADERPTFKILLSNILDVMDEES
Description: The inhibitory activity of the present compounds against Btk was assessed in a biochemical enzyme assay. […] The assay plates were prepared by addition of 50 nl per well of compound solution in 90% DMSO. […] Kinase reactions were analyzed on a Caliper LC3000 workstation by separating phosphorylated and unphosphorylated peptides and kinase activities were calculated from the amounts of newly formed phospho-peptide.

Chain of Btk (Q5S255 1-660): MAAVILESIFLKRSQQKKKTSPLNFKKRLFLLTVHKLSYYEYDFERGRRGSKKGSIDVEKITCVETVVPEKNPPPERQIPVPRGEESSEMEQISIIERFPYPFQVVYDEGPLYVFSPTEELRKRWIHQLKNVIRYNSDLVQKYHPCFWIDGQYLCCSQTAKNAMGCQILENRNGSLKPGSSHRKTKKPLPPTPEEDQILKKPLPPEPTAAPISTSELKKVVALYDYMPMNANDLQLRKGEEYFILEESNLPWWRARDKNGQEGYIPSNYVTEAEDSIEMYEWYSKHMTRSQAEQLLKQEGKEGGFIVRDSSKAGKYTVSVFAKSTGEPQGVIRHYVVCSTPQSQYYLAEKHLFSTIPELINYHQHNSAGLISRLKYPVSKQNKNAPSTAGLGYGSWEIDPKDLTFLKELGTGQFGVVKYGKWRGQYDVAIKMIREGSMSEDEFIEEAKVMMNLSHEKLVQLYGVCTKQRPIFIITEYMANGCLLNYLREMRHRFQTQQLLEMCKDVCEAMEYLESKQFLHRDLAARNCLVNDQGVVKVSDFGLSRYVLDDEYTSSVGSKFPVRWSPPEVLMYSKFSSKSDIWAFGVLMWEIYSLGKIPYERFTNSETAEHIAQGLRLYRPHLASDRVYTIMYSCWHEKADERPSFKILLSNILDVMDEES

SMILES	IC50 (Btk) [µM]	IC50 [1] [µM]
C=CC(=O)N1C[C@H](OC)C[C@H]1COc1c(N)ncnc1-c1cc(F)cc(N2CCc3cc(C4CC4)ccc3C2=O)c1CO [Example 28, 2-(3-(5-(((2S,4R)-1-Acryloyl-4-methoxypyrrolidin-2-yl)methoxy)-6-aminopyrimidin-4-yl)-5-fluoro-2-(hydroxymethyl)phenyl)-6-cyclopropyl-3,4-dihydroisoquinolin-1(2H)-one]	0.033	0.001
C=CC(=O)N1CCC[C@H]1COc1c(N)ncnc1-c1cc(F)cc(N2CCc3cc(C4CC4)ccc3C2=O)c1CO [Example 24, (S)-2-(3-(5-((1-Acryloylpyrrolidin-2-yl)methoxy)-6-aminopyrimidin-4-yl)-5-fluoro-2-(hydroxymethyl)phenyl)-6-cyclopropyl-3,4-dihydroisoquinolin-1(2H)-one]	0.032	0.0005
CC#CC(=O)N(C)[C@@H](C)COc1c(N)ncnc1-c1cc(F)cc(NC(=O)c2ccc(C3CC3)cc2F)c1C [Example 20, (S)—N-(3-(6-Amino-5-(2-(N-methylbut-2-ynamido)propoxy)pyrimidin-4-yl)-5-fluoro-2-methylphenyl)-4-cyclopropyl-2-fluorobenzamide]	0.33	0.005
C/C=C/C(=O)N1CC(Oc2c(N)ncnc2-c2cc(F)cc(NC(=O)c3ccc(C4CC4)cc3F)c2C)C1 [Example 2, (E)-N-(3-(6-Amino-5-((1-(but-2-enoyl)azetidin-3-yl)oxy)pyrimidin-4-yl)-5-fluoro-2-methylphenyl)-4-cyclopropyl-2-fluorobenzamide]	1.11	0.038

Other lines, results leading:

IC50 (Btk) [µM]	IC50 [1] [µM]	SMILES
0.968	0.032	C=CC(=O)N1CCC[C@@H](COc2c(N)ncnc2-c2cc(F)cc(NC(=O)c3ccc(C4CC4)cc3F)c2C)C1 [Example 37, (R)—N-(3-(5-((1-Acryloylpiperidin-3-yl)methoxy)-6-aminopyrimidin-4-yl)-5-fluoro-2-methylphenyl)-4-cyclopropyl-2-fluorobenzamide]
0.025	0.002	C=CC(=O)N1C[C@H](F)C[C@H]1COc1c(N)ncnc1-c1cc(F)cc(NC(=O)c2ccc(C3CC3)cc2F)c1C [Example 31, N-(3-(5-(((2S,4R)-1-Acryloyl-4-fluoropyrrolidin-2-yl)methoxy)-6-aminopyrimidin-4-yl)-5-fluoro-2-methylphenyl)-4-cyclopropyl-2-fluorobenzamide]
0.08	0.002	C=CC(=O)N1C[C@@H](C#N)C[C@H]1COc1c(N)ncnc1-c1cc(F)cc(NC(=O)c2ccc(C3CC3)cc2F)c1C [Example 40, N-(3-(5-(((2S,4S)-1-Acryloyl-4-cyanopyrrolidin-2-yl)methoxy)-6-aminopyrimidin-4-yl)-5-fluoro-2-methylphenyl)-4-cyclopropyl-2-fluorobenzamide]
0.055	0.004	CC#CC(=O)N1C[C@H](F)C[C@H]1COc1c(N)ncnc1-c1cc(F)cc(NC(=O)c2ccc(C3CC3)cc2F)c1C [Example 32, N-(3-(6-Amino-5-(((2S,4R)-1-(but-2-ynoyl)-4-fluoropyrrolidin-2-yl)methoxy)pyrimidin-4-yl)-5-fluoro-2-methylphenyl)-4-cyclopropyl-2-fluorobenzamide]
0.134	0.004	C=CC(=O)N1C[C@@H](OC)C[C@H]1COc1c(N)ncnc1-c1cc(F)cc(NC(=O)c2ccc(C3CC3)cc2F)c1C [Example 29, N-(3-(5-(((2S,4S)-1-Acryloyl-4-methoxypyrrolidin-2-yl)methoxy)-6-aminopyrimidin-4-yl)-5-fluoro-2-methylphenyl)-4-cyclopropyl-2-fluorobenzamide]

Source: patent US9512084B2, “Amino pyrimidine derivatives” (Novartis AG, priority 2013, dated 2016)
